Measurements taken from ChEMBL document CHEMBL1148788 (J Med Chem, 2007).

Experiments:
[1] = biological target: Neuronal acetylcholine receptor; alpha4/beta2 (Rattus norvegicus, UniProt P09483+P12390); assay: Displacement of [3H]epibatidine from rat recombinant alpha-4-beta-2 nAChR in HEK293 cell line; type: cell-based; conditions: for pKi: hek293; for Ki: read-out: Ki
[2] = biological target: T1, Neuronal acetylcholine receptor; alpha3/beta4 (Rattus norvegicus, UniProt P04757+P12392); assay: Displacement of [3H]epibatidine from recombinant rat alpha-3-beta-4 nAChr in HEK293 cell line; type: cell-based; conditions: for pKi: hek293
[3] = biological target: Neuronal acetylcholine receptor; alpha4/beta4 (Rattus norvegicus, UniProt P09483+P12392); assay: Displacement of [3H]epibatidine from recombinant rat alpha-4-beta-4 nAChr in HEK293 cell line; type: cell-based; conditions: for pKi: hek293
[4] = biological target: T2, Neuronal acetylcholine receptor subunit alpha-7 (Homo sapiens, UniProt P36544); assay: Displacement of [3H]methyllycaconitine from human alpha-7 in tsA201 cells coexpressed with 5HT3A receptor; type: cell-based
[5] = biological target: T2, Neuronal acetylcholine receptor subunit alpha-7; assay: Displacement of [3H]methyllycaconitine from alpha7 nAChR in tsA201 cells co-expressed with Ric3; type: cell-based
[6] = biological target: T3, 5-hydroxytryptamine receptor 3A (Homo sapiens, UniProt P46098); assay: Displacement of [3H]GR65630 from human 5HT3A receptor in HEK293 cells; type: cell-based; conditions: for pKi: hek293
T3 sequence (P46098 whole entry): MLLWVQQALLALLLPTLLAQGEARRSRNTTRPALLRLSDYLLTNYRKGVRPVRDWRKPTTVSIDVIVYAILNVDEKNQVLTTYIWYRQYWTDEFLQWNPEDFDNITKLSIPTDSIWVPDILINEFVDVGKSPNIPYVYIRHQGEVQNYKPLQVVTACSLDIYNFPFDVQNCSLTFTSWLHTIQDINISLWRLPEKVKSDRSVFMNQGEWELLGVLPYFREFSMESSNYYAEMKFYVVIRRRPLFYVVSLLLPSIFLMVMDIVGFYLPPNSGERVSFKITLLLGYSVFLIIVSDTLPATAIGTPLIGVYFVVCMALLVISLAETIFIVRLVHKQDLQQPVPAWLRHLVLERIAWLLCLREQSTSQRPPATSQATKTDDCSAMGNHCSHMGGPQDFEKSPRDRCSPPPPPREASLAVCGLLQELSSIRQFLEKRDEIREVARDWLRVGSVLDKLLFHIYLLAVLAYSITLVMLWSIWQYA

[7] = biological target: T2, Neuronal acetylcholine receptor subunit alpha-7; assay: Antagonist activity at human alpha-7 nAChR in tsA201 cells coexpressed with Ric3 by FMP assay; type: functional, cell-based
[8] = biological target: T1, Neuronal acetylcholine receptor; alpha3/beta4; assay: Antagonist activity at rat alpha3beta4 nAChR expressed in HEK293 cells by FMP assay; type: functional, cell-based, Homo sapiens
[9] = biological target: T3, 5-hydroxytryptamine receptor 3A; assay: Antagonist activity at human 5HT3A receptor expressed in HEK293 cells by FMP assay; type: functional, cell-based; conditions: for IC50: read-out: IC50
[10] = cells; type: functional, cell-based; conditions: Homo sapiens, HEK293
[11] = biological target: T4, Glycine receptor subunit alpha-1 (Homo sapiens, UniProt P23415); assay: Antagonist activity at human glycine alpha-1 receptor in HEK293 cells by FMP assay; type: functional, cell-based; conditions: for pIC50: hek293
T4 sequence (P23415 whole entry): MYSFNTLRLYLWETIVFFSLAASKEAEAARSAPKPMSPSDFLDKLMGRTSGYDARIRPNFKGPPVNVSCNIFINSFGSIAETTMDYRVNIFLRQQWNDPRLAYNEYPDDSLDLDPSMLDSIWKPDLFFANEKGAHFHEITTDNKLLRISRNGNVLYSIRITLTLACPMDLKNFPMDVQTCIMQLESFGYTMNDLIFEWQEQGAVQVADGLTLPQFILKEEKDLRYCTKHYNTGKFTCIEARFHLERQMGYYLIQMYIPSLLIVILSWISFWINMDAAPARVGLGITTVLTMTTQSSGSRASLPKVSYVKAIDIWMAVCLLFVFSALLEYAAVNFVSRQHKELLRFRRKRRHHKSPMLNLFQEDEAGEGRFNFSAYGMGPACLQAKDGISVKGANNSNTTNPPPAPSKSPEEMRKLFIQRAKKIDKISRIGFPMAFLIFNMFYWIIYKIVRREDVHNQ

Neuronal acetylcholine receptor; alpha4/beta2, sequence (P09483 whole entry): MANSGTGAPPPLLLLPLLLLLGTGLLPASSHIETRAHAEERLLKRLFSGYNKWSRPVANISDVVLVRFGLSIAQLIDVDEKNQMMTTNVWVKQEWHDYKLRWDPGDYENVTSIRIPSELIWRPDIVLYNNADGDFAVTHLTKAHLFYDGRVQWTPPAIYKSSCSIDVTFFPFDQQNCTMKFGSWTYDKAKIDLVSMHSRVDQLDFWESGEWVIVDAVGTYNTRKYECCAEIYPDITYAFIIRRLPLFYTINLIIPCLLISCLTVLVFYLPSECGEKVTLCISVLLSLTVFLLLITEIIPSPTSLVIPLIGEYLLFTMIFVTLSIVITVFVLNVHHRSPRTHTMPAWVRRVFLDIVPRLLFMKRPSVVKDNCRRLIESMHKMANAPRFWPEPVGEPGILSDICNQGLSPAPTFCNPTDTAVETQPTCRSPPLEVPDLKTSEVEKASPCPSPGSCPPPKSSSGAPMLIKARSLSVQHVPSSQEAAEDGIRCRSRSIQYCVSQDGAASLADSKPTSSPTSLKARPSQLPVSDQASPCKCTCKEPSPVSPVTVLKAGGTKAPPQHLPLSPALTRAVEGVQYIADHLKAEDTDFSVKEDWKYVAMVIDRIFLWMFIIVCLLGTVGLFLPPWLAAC
Neuronal acetylcholine receptor; alpha4/beta2, sequence (P12390 whole entry): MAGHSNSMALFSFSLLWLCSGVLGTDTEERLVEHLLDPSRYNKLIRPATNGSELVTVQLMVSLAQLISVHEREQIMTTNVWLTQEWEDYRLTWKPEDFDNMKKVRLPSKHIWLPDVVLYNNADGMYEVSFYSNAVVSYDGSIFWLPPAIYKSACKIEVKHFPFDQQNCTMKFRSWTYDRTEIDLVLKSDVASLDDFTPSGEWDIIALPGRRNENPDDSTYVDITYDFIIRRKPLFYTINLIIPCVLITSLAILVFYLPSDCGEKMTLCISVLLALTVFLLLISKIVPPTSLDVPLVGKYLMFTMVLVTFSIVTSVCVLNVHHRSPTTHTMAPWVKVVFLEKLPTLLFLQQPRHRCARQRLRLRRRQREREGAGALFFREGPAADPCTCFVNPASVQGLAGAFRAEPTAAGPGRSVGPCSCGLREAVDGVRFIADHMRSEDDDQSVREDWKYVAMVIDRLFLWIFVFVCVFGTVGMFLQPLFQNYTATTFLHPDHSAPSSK
Neuronal acetylcholine receptor; alpha4/beta4, sequence (P09483 whole entry): as the sequence (P09483 whole entry) above
Neuronal acetylcholine receptor; alpha4/beta4, sequence (P12392 whole entry): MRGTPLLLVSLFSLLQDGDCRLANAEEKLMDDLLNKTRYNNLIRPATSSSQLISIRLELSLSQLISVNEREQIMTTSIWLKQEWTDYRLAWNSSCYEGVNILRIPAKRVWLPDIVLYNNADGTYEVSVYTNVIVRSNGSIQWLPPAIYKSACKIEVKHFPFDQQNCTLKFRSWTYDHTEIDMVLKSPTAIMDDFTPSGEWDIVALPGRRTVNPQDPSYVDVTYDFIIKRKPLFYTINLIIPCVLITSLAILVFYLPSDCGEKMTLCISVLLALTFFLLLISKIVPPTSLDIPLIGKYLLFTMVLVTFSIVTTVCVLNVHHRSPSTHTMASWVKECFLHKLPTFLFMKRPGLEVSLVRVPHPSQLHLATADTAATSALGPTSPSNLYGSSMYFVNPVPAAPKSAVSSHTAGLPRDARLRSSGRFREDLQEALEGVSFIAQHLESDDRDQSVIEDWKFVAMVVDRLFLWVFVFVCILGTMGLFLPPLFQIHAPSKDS
T1 sequence (P04757 whole entry): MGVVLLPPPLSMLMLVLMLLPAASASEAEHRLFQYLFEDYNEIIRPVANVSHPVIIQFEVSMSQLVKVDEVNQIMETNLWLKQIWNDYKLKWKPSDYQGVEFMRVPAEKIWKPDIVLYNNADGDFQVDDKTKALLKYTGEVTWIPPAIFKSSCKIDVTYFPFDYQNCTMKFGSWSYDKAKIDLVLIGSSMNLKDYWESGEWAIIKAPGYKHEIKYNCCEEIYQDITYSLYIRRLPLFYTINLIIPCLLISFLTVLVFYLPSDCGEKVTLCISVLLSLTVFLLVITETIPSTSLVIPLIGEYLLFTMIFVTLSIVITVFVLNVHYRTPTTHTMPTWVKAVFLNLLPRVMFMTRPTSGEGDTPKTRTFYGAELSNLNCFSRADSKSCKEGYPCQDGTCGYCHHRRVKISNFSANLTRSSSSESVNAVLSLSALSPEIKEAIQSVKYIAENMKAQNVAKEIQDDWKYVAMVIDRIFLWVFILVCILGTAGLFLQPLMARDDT
T1 sequence (P12392 whole entry): as the sequence (P12392 whole entry) above
T2 sequence (P36544 whole entry): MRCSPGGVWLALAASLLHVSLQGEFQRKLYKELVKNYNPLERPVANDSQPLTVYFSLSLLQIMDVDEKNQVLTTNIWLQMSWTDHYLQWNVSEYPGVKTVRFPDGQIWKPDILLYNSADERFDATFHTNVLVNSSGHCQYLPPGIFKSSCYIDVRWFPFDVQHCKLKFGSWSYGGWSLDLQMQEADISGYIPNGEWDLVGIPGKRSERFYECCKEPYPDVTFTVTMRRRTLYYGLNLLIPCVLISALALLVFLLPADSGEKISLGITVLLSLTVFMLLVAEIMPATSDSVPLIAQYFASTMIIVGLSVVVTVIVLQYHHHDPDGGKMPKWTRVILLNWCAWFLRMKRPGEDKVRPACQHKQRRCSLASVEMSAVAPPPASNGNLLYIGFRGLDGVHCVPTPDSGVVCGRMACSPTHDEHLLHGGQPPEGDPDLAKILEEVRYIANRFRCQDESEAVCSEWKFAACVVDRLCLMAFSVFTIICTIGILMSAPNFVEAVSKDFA

COc1ccc(C[N+]23CC[C@@H]4[C@@H]5/C(=C\N6c7ccccc7[C@@]78CC[N+]9(Cc%10ccc(OC)c(OC)c%10)CC%10=CCO[C@H]([C@@H]([C@H]67)[C@H]%10C[C@@H]89)N5c5ccccc5)[C@@H](C[C@@H]42)/C(=C\CO)C3)cc1OC.[Cl-].[Cl-] (some centres undefined)
pKi [1]: < 4 | Ki [1]: > 100 µM | Ki [2]: > 100 µM | pKi [2]: < 4 | Ki [3]: > 100 µM | pKi [3]: < 4 | Ki ([4]; read-out: Ki): 0.27 µM | Ki ([4]; read-out: pKi (converted)): 0.251 µM | Ki ([5]; read-out: Ki): 0.2 µM | Ki ([5]; read-out: pKi (converted)): 0.2 µM | Ki [6]: 100 µM | IC50 ([7]; read-out: IC50): 2.6 µM | IC50 ([7]; read-out: pIC50 (converted)): 2.63 µM | IC50 ([8]; read-out: IC50): 100 µM | IC50 ([8]; read-out: pIC50 (converted)): 31.6 µM | IC50 [9]: 30 µM | IC50 ([10]; read-out: IC50): > 100 µM | IC50 ([10]; read-out: pIC50 (converted)): > 100 µM | IC50 [11]: > 100 µM | pIC50 [11]: < 4

OC/C=C1/C[N+]2(C3C=CCCC3)CC[C@@H]3[C@@H]4/C(=C\N5c6ccccc6[C@@]67CC[N+]8(C9C=CCCC9)CC9=CCO[C@H]([C@@H]([C@H]56)[C@H]9C[C@@H]78)N4c4ccccc4)[C@H]1C[C@@H]32.[Br-].[Br-] (some centres undefined)
pKi [1]: < 4 | Ki [1]: > 100 µM | Ki [2]: 100 µM | Ki [3]: > 100 µM | pKi [3]: < 4 | Ki ([4]; read-out: Ki): 0.36 µM | Ki ([4]; read-out: pKi (converted)): 0.316 µM | Ki ([5]; read-out: Ki): 0.23 µM | Ki ([5]; read-out: pKi (converted)): 0.251 µM | Ki [6]: 40 µM | IC50 ([7]; read-out: IC50): 2.3 µM | IC50 ([7]; read-out: pIC50 (converted)): 2.34 µM | IC50 ([8]; read-out: IC50): 30 µM | IC50 [9]: 30 µM | IC50 ([10]; read-out: IC50): > 100 µM | IC50 ([10]; read-out: pIC50 (converted)): > 100 µM | IC50 [11]: > 100 µM | pIC50 [11]: < 4

C[N+]12CCC34c5ccccc5N5/C=C6/[C@H]7C[C@H]8[C@@]9(CC[N+]8(C)C/C7=C/CO)c7ccccc7N(/C=C(/[C@@H](C[C@@H]31)/C(=C\CO)C2)[C@H]54)[C@@H]69.[Cl-].[Cl-] (some centres undefined) [TOXIFERINE]
pKi [1]: < 4 | Ki [1]: > 100 µM | Ki [2]: 30 µM | Ki [3]: > 100 µM | pKi [3]: < 4 | Ki ([4]; read-out: Ki): 1.6 µM | Ki ([4]; read-out: pKi (converted)): 1.58 µM | Ki ([5]; read-out: Ki): 2.6 µM | Ki ([5]; read-out: pKi (converted)): 2.51 µM | Ki [6]: > 100 µM | pKi [6]: < 4 | IC50 ([7]; read-out: IC50): 9.5 µM | IC50 ([7]; read-out: pIC50 (converted)): 9.55 µM | IC50 ([8]; read-out: IC50): 30 µM | pIC50 ([9]; hek293): < 4 | IC50 [9]: > 100 µM | IC50 ([10]; read-out: IC50): > 100 µM | IC50 ([10]; read-out: pIC50 (converted)): > 100 µM | IC50 [11]: > 100 µM | pIC50 [11]: < 4

C1=C2C[N+]3(Cc4ccccc4)CC[C@@H]4[C@@H]5[C@H]([C@@H](OC1)N1c6ccccc6[C@@]67CC[N+]8(Cc9ccccc9)CC9=CCO[C@H]([C@@H]([C@H]16)[C@H]9C[C@@H]78)N5c1ccccc1)[C@H]2C[C@@H]43.[Br-].[Br-] (some centres undefined)
pKi [1]: < 4 | Ki [1]: > 100 µM | Ki [2]: > 100 µM | pKi [2]: < 4 | Ki [3]: > 100 µM | pKi [3]: < 4 | Ki ([4]; read-out: Ki): 0.2 µM | Ki ([4]; read-out: pKi (converted)): 0.2 µM | Ki ([5]; read-out: Ki): 0.25 µM | Ki ([5]; read-out: pKi (converted)): 0.251 µM | Ki [6]: 100 µM | IC50 ([7]; read-out: IC50): 4.5 µM | IC50 ([7]; read-out: pIC50 (converted)): 4.47 µM | pIC50 ([8]; hek293): < 4 | IC50 ([8]; read-out: IC50): > 100 µM | IC50 [9]: 100 µM | IC50 ([10]; read-out: IC50): > 100 µM | IC50 ([10]; read-out: pIC50 (converted)): > 100 µM | IC50 [11]: > 100 µM | pIC50 [11]: < 4

C1=C2C[N+]3(Cc4ccc5ccccc5c4)CC[C@@H]4[C@@H]5[C@H]([C@@H](OC1)N1c6ccccc6[C@@]67CC[N+]8(Cc9ccc%10ccccc%10c9)CC9=CCO[C@H]([C@@H]([C@H]16)[C@H]9C[C@@H]78)N5c1ccccc1)[C@H]2C[C@@H]43 (some centres undefined)
Ki ([4]; read-out: Ki): 0.36 µM | Ki ([4]; read-out: pKi (converted)): 0.316 µM | Ki ([5]; read-out: Ki): 0.71 µM | Ki ([5]; read-out: pKi (converted)): 0.631 µM

CN(C)Cc1c2n(c3ccccc13)Cc1c(CN(C)C)c3ccccc3n1C2
pKi [1]: < 4 | Ki [1]: > 100 µM | Ki [2]: > 100 µM | pKi [2]: < 4 | Ki [3]: > 100 µM | pKi [3]: < 4 | Ki ([4]; read-out: Ki): 19 µM | Ki ([4]; read-out: pKi (converted)): 20 µM | Ki ([5]; read-out: Ki): 5.4 µM | Ki ([5]; read-out: pKi (converted)): 5.01 µM | Ki [6]: > 100 µM | pKi [6]: < 4
